Experiment [1] has as its system HES3 NKX2-5:GFP reporter hESC line derived cardiomyocytes. The experiment in a line: qRT-PCR analysis of atrial and ventricular gene expression in day 20 hPSC-derived cardiomyocytes. The experiment is classed as cell-based, human. A general note: In qPCR the cycle at which signal appears reflects the starting amount.
Experiment [2] relates to HES2 human embryonic stem cell derived EBs. The experiment can be described thus: ROH/RA response of HES2-derived EBs (day 20 flow cytometry and qRT-PCR). The conditions noted are these: treated days 3 to 5. Format: cell-based. From the text: (§1) To determine if the approach for optimizing atrial and ventricular differentiation based on ALDH activity and CD235a expression is broadly applicable, we next used it to generate these cardiomyocyte populations from the HES2 human embryonic stem cell and the MSC-iPS1 induced pluripotent stem cell lines. Titration studies identified 5B/2A and 5B/6A as optimal for atrial and ventricular inductions, respectively, for HES2 cells and 4B/4A as optimal for ventricular induction for MSCiPSC1 cells (FIGS. 7A, 7B, 7E, and 7F; Mendeley http://dx.doi.org/10.17632/7z7d5v2c3w.1). Optimization of atrial induction from the MSC-iPSC1 cells was more challenging, as all cytokine combinations promoted the development of a substantial CD235a+ population. One interpretation of these patterns is that the MSC-iPS1 cells have a high level of endogenous Nodal/Activin A signaling, resulting in the development of some CD235a+ cells under all conditions. To test this, we added the Nodal/Activin A/transforming growth factor beta (TGF-beta) inhibitor SB-431542 (SB) from days 3 to 5 to cells induced with 4B/1A.
(§2) For cardiac differentiation, we used a modified version of our embryoid body (EB)-based protocol (Kattman et al., 2011). hPSC populations at 80%-90% confluence were dissociated into single cells (TrypLE, ThermoFisher) and re-aggregated to form EBs in StemPro-34 media (ThermoFisher) containing penicillin/streptomycin (1%, ThermoFisher), L-glutamine (2 mM, ThermoFisher), trans-ferrin (150 μg/ml, ROCHE), ascorbic acid (50 μg/ml, Sigma), and monothioglycerol (50 μg/ml, Sigma), ROCK inhibitor Y-27632 (10 μM, TOCRIS) and rhBMP4 (1 ng/ml, R&D) for 18 h on an orbital shaker. At day 1, the EBs were transferred to mesoderm induction media consisting of StemPro-34 with above supplements (-ROCK inhibitor Y-27632) and rhBMP4, rhActivinA (R&D) and rhbFGF (5 ng/ml, R&D) at the indicated concentrations. At day 3, the EBs were harvested, washed with IMDM and transferred to cardiac mesoderm specification media consisting of StemPro-34, the Wnt inhibitor IWP2 (1 μM, TOCRIS) and rhVEGF (10 ng/mL, R&D). At day 5, the EBs were transferred to Stem Pro-34 with rhVEGF (5 ng/ml) for another 7 days and then to Stem Pro-34 media without additional cytokines for further 8 days. At day 20, HES3-NKX2-5gfp/w-derived cardiomyocytes were analyzed and isolated based on the expression of NKX2-5:GFP and SIRPa and a lack of CD90. Cardiomyocytes generated from non-transgenic hPSC lines were analyzed and isolated as SIRPa+CD90− populations. Media was changed every 3 days. Cultures were incubated in a low oxygen environment (5% CO2, 5% O2, 90% N2) for first 12 days and a normoxic environment (5% CO2) for the following 8 days in total of 20 days. […]
A general note: A flow cytometer gives signals particle by particle.

The subject of experiment [3] is MSC-iPS1 induced pluripotent stem cell line derived EBs. The experiment can be described thus: ROH/RA response of MSC-iPS1-derived EBs (day 20 flow cytometry and qRT-PCR). The settings on record: treated days 3 to 5. Format: cell-based, human.
From the text: as §1, §2

The subject of experiment [4] is HES3 NKX2-5:GFP reporter hESC line derived cardiomyocytes. The experiment can be described thus: qRT-PCR analysis of atrial and ventricular gene expression in day 20 hPSC-derived cardiomyocytes. Format: cell-based, human. How it is done: To determine if retinoic acid signaling can specify an atrial fate in hPSC-derived cardiogenic populations generated with our embryoid-body (EB)-based protocol, all trans retinoic acid (RA) was added to the differentiation cultures at 4 different time points that represent the following developmental stages: mesoderm induction (day 3), cardiovascular specification (day 5), cardiac progenitor development (day 7) and emergence of contracting cardiomyocytes (day 9) (Kattman et al., 2011) (FIG. 1A). The HES3 NKX2-5: GFP reporter hESC line was used for these experiments to allow us to monitor and quantify cardiovascular development and to isolate GFP+ cardiomyocytes. At day 20 of culture, GFP+SIRPA+CD90− cardiomyocytes were isolated from the differentiated populations and analyzed by RTqPCR for expression of genes indicative of atrial and ventricular development. (FIGS. 1B-D and 8B-E).
For cardiac differentiation, we used a modified version of our embryoid body (EB)-based protocol (Kattman et al., 2011). hPSC populations at 80%-90% confluence were dissociated into single cells (TrypLE, ThermoFisher) and re-aggregated to form EBs in StemPro-34 media (ThermoFisher) containing penicillin/streptomycin (1%, ThermoFisher), L-glutamine (2 mM, ThermoFisher), trans-ferrin (150 μg/ml, ROCHE), ascorbic acid (50 μg/ml, Sigma), and monothioglycerol (50 μg/ml, Sigma), ROCK inhibitor Y-27632 (10 μM, TOCRIS) and rhBMP4 (1 ng/ml, R&D) for 18 h on an orbital shaker. At day 1, the EBs were transferred to mesoderm induction media consisting of StemPro-34 with above supplements (-ROCK inhibitor Y-27632) and rhBMP4, rhActivinA (R&D) and rhbFGF (5 ng/ml, R&D) at the indicated concentrations. At day 3, the EBs were harvested, washed with IMDM and transferred to cardiac mesoderm specification media consisting of StemPro-34, the Wnt inhibitor IWP2 (1 μM, TOCRIS) and rhVEGF (10 ng/mL, R&D). At day 5, the EBs were transferred to Stem Pro-34 with rhVEGF (5 ng/ml) for another 7 days and then to Stem Pro-34 media without additional cytokines for further 8 days. At day 20, HES3-NKX2-5gfp/w-derived cardiomyocytes were analyzed and isolated based on the expression of NKX2-5:GFP and SIRPa and a lack of CD90. Cardiomyocytes generated from non-transgenic hPSC lines were analyzed and isolated as SIRPa+CD90− populations. Media was changed every 3 days. Cultures were incubated in a low oxygen environment (5% CO2, 5% O2, 90% N2) for first 12 days and a normoxic environment (5% CO2) for the following 8 days in total of 20 days. The EBs were cultured in ultra-low attachment 6-well dishes (Corning) throughout the differentiation for maintaining suspension cultures.
Total RNA from hPSC-derived populations was isolated using RNAqueous-micro Kit including RNase-free DNase treatment (Ambion). RNA from dissected ventricular and atrial tissue of human fetal hearts was isolated using the TRIzol method (ThermoFisher) and treated with DNase (Ambion). Between 100 ng and […] of isolated RNA was reverse transcribed into cDNA using oligo (dT) primers and random hexamers and Superscript III Reverse Transcriptase (ThermoFisher). QRT-PCR was performed on an EP Real-Plex MasterCycler (Eppendorf) using QuantiFast SYBR Green PCR kit (QIAGEN). All experiments were prepared in duplicates and included a 10-fold dilution series of sonicated human genomic DNA standards ranging from 25 ng/ml to 2.5 μg/ml for evaluating the efficiency of PCR reaction and the copy number of each gene relative to the house keeping gene TBP. […]
The source holds these as a separate data set.

The mark [5] stands for this setting: RA added at days 3 and 5, day 20.
[6] abbreviates: day 3 RA-treated mesoderm versus non-treated.

Each structure is given as a SMILES string.

As for `CC1=C(/C=C/C(C)=C/C=C/C(C)=C/C(=O)O)C(C)(C)CCC1` [RA, all trans retinoic acid], the “expression of KCNJ3, CACNA1D and NR2F2 in VI versus AI cardiomyocytes” value in experiment [1] (4 mM RA) was “Comparable expression levels”. Moreover, in experiment [1] (RA 1-2 mM), the “expression of ventricular genes MYL2 and IRX4 in the VI population” value was “completely suppress”. In experiment [1] (RA added at later stages (days 7 and 12)), the “expression of MYL2 and KCNJ3” value is given as “no effect”. Further, in experiment [1] (RA increased from 0.5 to 1-2 mM), the “expression level of KCNA5 in cardiomyocytes from VI EBs” value is recorded as “did increase”. In addition, in experiment [1] (RA up to 2 mM), the “expression of KCNJ3, CACNA1D and NR2F2 in VI cardiomyocytes to levels of AI cells” value is given as “failed to increase”. For the same molecule, the “response of ALDH+ mesoderm (atrial expression profile)” value in experiment [2] (HES2, 5B/2A induced) was “responded to both ROH and RA”. In experiment [2] (HES2, 5B/6A induced), the “response of CD235a+ mesoderm (MLC2V content, MYL2, IRX4, KCNJ3, NR2F2)” value is listed as “both responded to RA”. Also, the “response of ALDH+ mesoderm (atrial expression profile)” value in experiment [3] (MSC-iPS1, 4B/1A+SB induced) was “responded to both ROH and RA”. For the same molecule, the “response of CD235a+ mesoderm (MLC2V content, MYL2, IRX4, KCNJ3, NR2F2)” value in experiment [3] (MSC-iPS1, 4B/4A induced) is “both responded to RA”. Moreover, in experiment [4] (setting [5]), the “expression of atrial ion channel gene KCNJ3” value is given as “upregulation” and the “expression of ventricular-specific gene MYL2” value is “significant reduction”. Also, in experiment [4] (RA added at different time points, 10B/6A induced, day 20), the “expression of pan-cardiomyocyte marker CTNT” value is “None of the RA treatments significantly altered”. In addition, in experiment [4] (setting [6]), the “expression of atrial markers NR2F2, TBX5, NPPA, MYL7, CACNA1D, KCNA5, GJA5” value was “reverse pattern”; the “expression of ventricular markers IRX4 and MYH7” value was “lower levels”.
